In data set [1] the test system is MDCK-MDR1 cells. As to the kind of experiment: Permeability in MDCK-MDR1 cells. Particulars: MDR1-MDCK cell monolayers.
For data set [2], the system named is N2a-cl3 cells. Particulars: read-out: Dividing Calcein EC50 (μM) Mean (n = 3).
Data set [3] has as its system PrP^Sc in nondividing ScN2a-cl3 cells. It is filed as cell-based, mouse. The following applies: read-out: Non-Dividing ELISA EC50 (μM) Mean (n = 3); ScN2a-c13 non-dividing cells; mean n = 3. (An ELISA detects its analyte on a solid surface through an enzyme-linked reagent.)
Data set [4] can be described thus: Hepatic microsomal stability, rat. The following applies: […].
In data set [5] the test system is PrP^Sc in dividing ScN2a-cl3 cells. It is filed as cell-based, mouse. Set-up: Dividing ELISA pEC50 (μM) 1st Expt. / Dividing ELISA pEC50 (μM) 2nd Expt. / Dividing ELISA pEC50 (μM) 3rd Expt. / Dividing ELISA pEC50 (μM) Mean: unit not given here.

Where two headings read alike, the source gives them in different places.

For orientation: EC50 means the concentration giving half of the maximal effect. As to `Cc1ccc(Nc2nc(-c3ccncc3)cs2)nc1` [compound 23], the “Permeability PA→B” value in data set [1] (apical to basal) is listed as 32.6 10^−6 cm/sec. Besides, in data set [1] (basal to apical), the “Permeability PB→A” value is recorded as 42.3 10^−6 cm/sec. In addition, the EC50 in data set [2] was more than 32 µM; in data set [3] it was more than 32 µM; in data set [5] (ScN2a-cl3 cells, read-out: Antiprion activity ScN2a-cl3 EC50) it was 1.57 µM; in data set [5] (ScN2a-cl3 dividing cells, 1st determination, read-out: Dividing ELISA EC50 (μM) 1st Expt.) it was 1.12 µM; in data set [5] (ScN2a-cl3 dividing cells, 2nd determination, read-out: Dividing ELISA EC50 (μM) 2nd Expt.) it was 1.75 µM; in data set [5] (ScN2a-cl3 dividing cells, 3rd determination, read-out: Dividing ELISA EC50 (μM) 3rd Expt.) it was 1.85 µM. The EC50 in data set [5] (ScN2a-cl3 dividing cells, mean of three determinations, read-out: Dividing ELISA EC50 (μM) Mean) came to 1.57 µM. The “Microsome stability T1/2” value in data set [4] was 20 min. In addition, the “Dividing ELISA pEC50 (μM) 1st Expt.” value in data set [5] (ScN2a-cl3 dividing cells, 1st determination) was found to be 5.95. In addition, in data set [5] (ScN2a-cl3 dividing cells, 2nd determination), the “Dividing ELISA pEC50 (μM) 2nd Expt.” value was found to be 5.76. In addition, the “Dividing ELISA pEC50 (μM) 3rd Expt.” value in data set [5] (ScN2a-cl3 dividing cells, 3rd determination) came out at 5.73. In addition, the “Dividing ELISA pEC50 (μM) Mean” value in data set [5] (ScN2a-cl3 dividing cells, mean of three determinations) is recorded as 5.81.
